Measurements as given in publication PMC9763054 (Nature, 2021).

Biological target: human CB1 (Homo sapiens, UniProt P21554)
Format: cell-based

Chain of human CB1 (P21554 whole entry): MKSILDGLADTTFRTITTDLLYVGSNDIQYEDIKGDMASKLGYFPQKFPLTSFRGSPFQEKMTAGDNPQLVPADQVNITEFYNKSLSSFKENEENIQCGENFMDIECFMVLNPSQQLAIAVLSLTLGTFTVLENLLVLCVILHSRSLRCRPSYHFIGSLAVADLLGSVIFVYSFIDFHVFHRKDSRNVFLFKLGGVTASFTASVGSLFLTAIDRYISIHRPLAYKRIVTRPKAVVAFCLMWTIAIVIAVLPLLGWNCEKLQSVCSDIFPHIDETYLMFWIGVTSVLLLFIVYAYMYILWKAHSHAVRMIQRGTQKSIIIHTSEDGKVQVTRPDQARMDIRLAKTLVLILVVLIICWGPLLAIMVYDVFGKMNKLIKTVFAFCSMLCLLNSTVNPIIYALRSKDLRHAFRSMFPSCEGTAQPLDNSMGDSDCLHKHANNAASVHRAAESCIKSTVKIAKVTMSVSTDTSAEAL

CCCCCCC(C)(C)c1ccc([C@@H]2C[C@H](O)CC[C@H]2CCCO)c(O)c1 [CP55940]
CB1 potency measured in agonist mode: 17 nM
